Measured values reported in patent US20220040319A1, “METHODS OF TREATING OCULAR CANCER USING ANTI-MET ANTIBODIES AND BISPECIFIC ANTIGEN BINDING MOLECULES THAT BIND MET” (Regeneron Pharmaceuticals, Inc., priority 2019, published 2022).

Columns and labels:
[1] = system: MET pathway in NCI-H596 cells; test: MET and ERK phosphorylation in NCI-H596 cells, immunoblot; format: cell-based, human; conditions: fold change relative to control, HGF 50 ng/ml, antibody 10 μg/ml
Method: 250,000 NCI-H596 cells were seeded in a 12 well plate and cultured in RPMI Media supplemented with 10% FBS. […] The cells were subsequently incubated in 5% CO2 at 37° C. After 0, 2, 6 or 18 hours, cell lysates were prepared, protein content was normalized and immunoblot analysis was performed. MET phosphorylation and ERK phosphorylation were quantified with the ImageJ image processing program (T. Collins, BioTechniques 43: S25-S30, 2007). Phosphorylation levels were normalized to the Tubulin loading control and are expressed as fold change relative to control treatment.

NCI-H596 cells = test: NCI-H596 growth in soft agar, AlamarBlue, two weeks; format: cell-based, human; conditions: antibody 5 μg/ml (combination 2.5 μg/ml each), HGF 100 ng/mL
Method: The effect of a MET×MET bispecific antibody on the growth of human non-small cell lung cancer (NSCLC) cells (NCI-H596) was assessed in vitro. 10,000 NCI-H596 lung adenosquamous carcinoma cells (Nair et al., J. Nat'l. Cancer Inst. 86(5): 378-383, 1994) were seeded in 96 well plates on a layer of 0.66% agar in media supplemented with 1% fetal bovine serum (FBS). The cells were cultured in RPMI 1640 media supplemented with 1% FBS with 0.3% agarose. […] The cells were subsequently incubated with 5% CO2 at 37° C. After two weeks, relative cell growth was determined by measuring the reduction of the indicator dye, ALAMAR BLUE® (Thermo Fischer Scientific, Waltham, Mass.), to its highly fluorescent form in a SPECTRAMAX® M3 plate reader (Molecular Devices, Sunnyvale, Calif.). Increasing fluorescence correlates with cell growth. Table 18 and FIG. 14 depict the relative NCI-H596 cell growth for each antibody treatment normalized to control (no treatment) NCI-H596 cell growth.

## HGF: hepatocyte growth factor, MET agonist ligand [reference compound]
[1]; 2 hours
  Phospho-ERK (mean ± SD): 16.7 ± 1.6
  Phospho-MET (mean ± SD): 202.3 ± 38.7
[1]; 6 hours
  Phospho-ERK (mean ± SD): 12.4 ± 3.9
  Phospho-MET (mean ± SD): 38.9 ± 4.9
[1]; 18 hours
  Phospho-ERK (mean ± SD): 12.4 ± 0.9
  Phospho-MET (mean ± SD): 59.2 ± 24.4
NCI-H596 cells
  Relative Cell Growth (n = 3): 7.877
